Laboratory results from US20040044000A1, “Isoquinoline derivatives as matrix metalloproteinase inhibitors” (priority 2002, published 2004).
Read-outs that look alike come from different tables or passages of the source.

Columns and labels:
Assay type in all cases: biochemical
[1] = target: T1, MMP-13 catalytic domain (MMP-13CD) (Homo sapiens, UniProt P45452); assay: Inhibition of MMP-13 catalytic domain (thiopeptolide substrate hydrolysis)
T1 construct: use the catalytic domain of the MMP-13 enzyme, namely matrix metalloproteinase-13 catalytic domain (“MMP-13CD”), rather than the corresponding full-length enzyme
Description: (§1) The assays measure the amount by which a test compound reduces the hydrolysis of a thiopeptolide substrate catalyzed by a matrix metalloproteinase enzyme. Such assays are described in detail by Ye et al., in Biochemistry, 1992;31(45):11231-11235, which is incorporated herein by reference. One such assay is described below in Biological Method 1.
Some of the particular methods described below use the catalytic domain of the MMP-13 enzyme, namely matrix metalloproteinase-13 catalytic domain (“MMP-13CD”), rather than the corresponding full-length enzyme, MMP-13. It has been shown previously by Ye Qi-Zhuang, Hupe D., and Johnson L. (Current Medicinal Chemistry, 1996;3:407-418) that inhibitor activity against a catalytic domain of an MMP is predictive of the inhibitor activity against the respective full-length MMP enzyme.
(§2) Thiopeptolide substrates show virtually no decomposition or hydrolysis at or below neutral pH in the absence of a matrix metalloproteinase enzyme. A typical thiopeptolide substrate commonly utilized for assays is Ac-Pro-Leu-Gly-thioester-Leu-Leu-Gly-OEt. A 100 μL assay mixture will contain 50 mM of N-2-hydroxyethylpiperazine-N′-2-ethanesulfonic acid buffer (“HEPES,” pH 7.0), 10 mM CaCl2, 100 μM thiopeptolide substrate, and 1 mM 5,5′-dithio-bis-(2-nitro-benzoic acid) (DTNB). The thiopeptolide substrate concentration may be varied, for example from 10 to 800 μM to obtain Km and Kcat values. The change in absorbance at 405 nm is monitored on a Thermo Max microplate reader (molecular Devices, Menlo Park, Calif.) at room temperature (22° C.). The calculation of the amount of hydrolysis of the thiopeptolide substrate is based on E412=13600 M^−1 cm^−1 for the DTNB-derived product 3-carboxy-4-nitrothiophenoxide. Assays are carried out with and without matrix metalloproteinase inhibitor compounds, and the amount of hydrolysis is compared for a determination of inhibitory activity of the test compounds.
(§3) Test compounds were evaluated at various concentrations in order to determine their respective IC50 values, the micromolar concentration of compound required to cause a 50% inhibition of catalytic activity of the respective enzyme.

[2] = target: MMP-3 catalytic domain (MMP-3CD) (Homo sapiens, UniProt P08254); assay: Inhibition of MMP-3 catalytic domain (thiopeptolide substrate hydrolysis, MES pH 6.0)
Description: as §1, §2, §3
It should be appreciated that the assay buffer used with MMP-3CD was 50 mM N-morpholinoethane sulfonate (“MES”) at pH 6.0 rather than the HEPES buffer at pH 7.0 described above.

[3] = target: T2, MMP-12 catalytic domain (MMP-12CD) (Homo sapiens, UniProt P39900); assay: Inhibition of MMP-12 catalytic domain (thiopeptolide substrate hydrolysis)
T2 construct: MMP-3 catalytic domain, MMP-12 catalytic domain, MMP-14 catalytic domain, and MMP-17 catalytic domain
Description: as §1, §2, §3
(§4) The test described above for the inhibition of MMP-13 may also be adapted and used to determine the ability of the compounds of Formula I to inhibit the matrix metalloproteases MMP-1, MMP-2, MMP-3, MMP-7, MMP-9, MMP-12 and MMP-14.

[4] = target: MMP-14 catalytic domain (MMP-14CD) (Homo sapiens, UniProt P50281); assay: Inhibition of MMP-14 catalytic domain (thiopeptolide substrate hydrolysis)
Description: as §1, §2, §3, §4

[5] = Biological Table 1, read-out: MMP-13CD IC50
[6] = Biological Table 2, compounds of Example 66, read-out: MMP-13CD IC50

Chain of MMP-3 catalytic domain (MMP-3CD) (P08254 100-272 limits assumed, species assumed): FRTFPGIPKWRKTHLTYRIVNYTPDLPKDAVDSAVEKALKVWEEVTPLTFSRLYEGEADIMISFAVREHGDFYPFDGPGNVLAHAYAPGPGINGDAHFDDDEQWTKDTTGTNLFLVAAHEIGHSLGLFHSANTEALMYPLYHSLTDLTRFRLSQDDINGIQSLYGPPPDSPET
T2 sequence (P39900 106-263 limits assumed, species assumed): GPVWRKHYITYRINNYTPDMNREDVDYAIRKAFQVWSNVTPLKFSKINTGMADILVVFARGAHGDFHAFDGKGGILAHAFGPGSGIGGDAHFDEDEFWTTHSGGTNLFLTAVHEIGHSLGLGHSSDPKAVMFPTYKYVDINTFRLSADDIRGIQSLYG

Row | IC50 [1, 5] | IC50 [1, 6] | Structure (SMILES) | further results
1 | 0.4 µM | – | COc1cc(CNC(=O)c2ccc3ccn(Cc4ccc(C#N)cc4)c(=O)c3c2)ccn1 [Example 35, 2-(4-cyanobenzyl)-1-oxo-1,2-dihydro-isoquinoline-7-carboxylic Acid (2-methoxypyridin-4-ylmethyl)amide] | IC50 [2]: 7 µM; IC50 [3]: > 10 µM; IC50 [4]: 81 µM
2 | 12 µM | – | O=C(NCc1cncnc1)c1ccc2ccn(Cc3ccc(F)c(F)c3)c(=O)c2c1 [Example 26, 2-(3,4-difluorobenzyl)-1-oxo-1,2-dihydroisoquinoline-7-carboxylic Acid (pyrimidin-5-ylmethyl)-amide] | –
3 | – | 24 µM | O=c1c2cc(C#CCc3ccccc3)ccc2ccn1CCC1OCCO1 [Example 66m, 2-(2-1,3-Dioxolan-2-yl-ethyl)-7-(3-phenyl-prop-1-ynyl)-2H-isoquinolin-1-one] | –
4 | 1.2 µM | – | COc1cccc(CNC(=O)c2ccc3ccn(CCOc4ccccc4)c(=O)c3c2)c1 [Example 45, 1-oxo-2-(2-phenoxyethyl)-1,2-dihydroisoquinoline-7-carboxylic Acid 3-methoxybenzylamide] | –
5 | – | > 30 µM | COCCn1ccc2ccc(C#CCc3ccccc3)cc2c1=O [Example 66w, 2-(2-Methoxy-ethyl)-7-(3-phenyl-prop-1-ynyl)-2H-isoquinolin-1-one] | –
6 | > 10 µM | – | Cc1ccc(CNC(=O)c2ccc3ccn(CCOc4ccccc4)c(=O)c3c2)cc1 [Example 47, 1-oxo-2-(2-phenoxyethyl)-1,2-dihydroisoquinoline-7-carboxylic Acid 4-methylbenzamide] | –
7 | 7.4 µM | – | CS(=O)(=O)c1ccc(Cn2ccc3ccc(C(=O)NCc4cccnc4)cc3c2=O)cc1 [Example 50, 2-(4-methane-sulfonylbenzyl)-1-oxo-1,2-dihydro-isoquinoline-7-carboxylic Acid (pyridin-3-ylmethyl)amide] | –
8 | – | 3.9 µM | N#CCCCCCCn1ccc2ccc(C#CCc3ccccc3)cc2c1=O [Example 66aj, 7-[1-Oxo-7-(3-phenyl-prop-1-ynyl)-1H-isoquinolin-2-yl]-heptanenitrile] | –
9 | – | > 100 µM | O=c1c2cc(C#CCc3ccccc3)ccc2ccn1CC(CO)(CO)CO [Example 66b, 2-(3-Hydroxy-2,2-bis-hydroxymethyl-propyl)-7-(3-phenyl-prop-1-ynyl)-2H-isoquinolin-1-one] | –
10 | – | 8.7 µM | CCOC(=O)CCCCCn1ccc2ccc(C#CCc3ccccc3)cc2c1=O [Example 66v, 6-[1-Oxo-7-(3-phenyl-prop-1-ynyl)-1H-isoquinolin-2-yl]-hexanoic acid ethyl ester] | –
11 | – | > 100 µM | CCOC(=O)CCn1ccc2ccc(C#CCc3ccccc3)cc2c1=O [Example 66t, 3-[1-Oxo-7-(3-phenyl-prop-1-ynyl)-1H-isoquinolin-2-yl]-propionic acid ethyl ester] | –
12 | 0.095 µM | – | COc1cccc(CNC(=O)c2ccc3ccn(Cc4ccc(C#N)cc4)c(=O)c3c2)c1 [Example 37, 2-(4-cyanobenzyl)-1-oxo-1,2-dihydro-isoquinoline-7-carboxylic Acid 3-methoxybenzylamide] | IC50 [2]: 13 µM; IC50 [3]: 13 µM; IC50 [4]: > 30 µM
13 | – | 24 µM | O=c1c2cc(C#CCc3ccccc3)ccc2ccn1CC1OCCO1 [Example 66n, 2-1,3-Dioxolan-2-ylmethyl-7-(3-phenyl-prop-1-ynyl)-2H-isoquinolin-1-one] | –
14 | 0.24 µM | – | COc1ccc(CNC(=O)c2ccc3ccn(Cc4ccc(C#N)cc4)c(=O)c3c2)cc1 [Example 36, 2-(4-cyanobenzyl)-1-oxo-1,2-dihydro-isoquinoline-7-carboxylic Acid 4-methoxybenzylamide] | IC50 [2]: 19 µM; IC50 [3]: 24 µM; IC50 [4]: > 30 µM
15 | > 10 µM | – | Cc1ccc(CNC(=O)c2ccc3ccn(Cc4ccc(C#N)cc4)c(=O)c3c2)cc1 [Example 39, 2-(4-cyanobenzyl)-1-oxo-1,2-dihydro-isoquinoline-7-carboxylic Acid 4-methylbenzylamide] | –
16 | – | 1.9 µM | O=c1c2cc(C#CCc3ccccc3)ccc2ccn1Cc1ccccc1 [Example 66ag, 2-Benzyl-7-(3-phenyl-prop-1-ynyl)-2H-isoquinolin-1-one] | –
17 | – | 22.5 µM | N#CCCCn1ccc2ccc(C#CCc3ccccc3)cc2c1=O [Example 66c, 4-[1-Oxo-7-(3-phenyl-prop-1-ynyl)-1H-isoquinolin-2-yl]-butyronitrile] | –
18 | – | 13 µM | O=c1c2cc(C#CCc3ccccc3)ccc2ccn1CC1CCCO1 (stereo not shown) [Example 66i, 7-(3-Phenyl-prop-1-ynyl)-2-(tetrahydro-furan-2-ylmethyl)-2H-isoquinolin-1-one] | –
19 | 35 µM | – | CS(=O)(=O)c1ccc(Cn2ccc3ccc(C(=O)NCc4cncnc4)cc3c2=O)cc1 [Example 54, 2-(4-methane-sulfonylbenzyl)-1-oxo-1,2-dihydro-isoquinoline-7-carboxylic Acid (pyrimidin-5-ylmethyl)amide] | –
20 | – | – | O=c1c2cc(C#CCc3ccccc3)ccc2ccn1Cc1cccc(Cl)c1 [Example 10, 2-(3-Chlorobenzyl)-7-(3-phenylprop-1-ynyl)-2H-isoquinolin-1-one] | IC50 ([1]; read-out: IC50 with MMP-13 catalytic domain): 0.052 µM
21 | 2.2 µM | – | CSc1ccc(CNC(=O)c2ccc3ccn(Cc4ccc(S(C)(=O)=O)cc4)c(=O)c3c2)cc1 [Example 56, 2-(4-methane-sulfonylbenzyl)-1-oxo-1,2-dihydro-isoquinoline-7-carboxylic Acid 4-methyl-sulfanylbenzylamide] | –
22 | 12 µM | – | O=C(NCc1ccco1)c1ccc2ccn(Cc3ccc(-c4nn[nH]n4)cc3)c(=O)c2c1 [Example 62, 1-oxo-2-[4-(2H-tetrazol-5-yl)benzyl]-1,2-dihydroisoquinoline-7-carboxylic Acid (furan-2-ylmethyl)amide] | –
23 | – | 11 µM | COc1ccc2nc(Cn3ccc4ccc(C#CCc5ccccc5)cc4c3=O)c(=O)oc2c1 [Example 66u, 7-Methoxy-3-[1-oxo-7-(3-phenyl-prop-1-ynyl)-1H-isoquinolin-2-ylmethyl]-1,4-benzoxazin-2-one] | –
24 | – | 95 µM | CS(=O)(=O)c1ccc(Cn2ccc3ccc(C#CCc4ccccc4)cc3c2=O)cc1 [Example 66o, 2-(4-Methanesulfonyl-benzyl)-7-(3-phenyl-prop-1-ynyl)-2H-isoquinolin-1-one] | –
25 | – | 20 µM | O=c1c2cc(C#CCc3ccccc3)ccc2ccn1CS(=O)(=O)c1ccccc1 [Example 66ad, 2-Benzenesulfonylmethyl-7-(3-phenyl-prop-1-ynyl)-2H-isoquinolin-1-one] | –
26 | – | 12 µM | CCC(=O)Cn1ccc2ccc(C#CCc3ccccc3)cc2c1=O [Example 66ab, 2-(2-Oxo-butyl)-7-(3-phenyl-prop-1-ynyl)-2H-isoquinolin-1-one] | –
27 | 1.3 µM | – | N#Cc1ccc(Cn2ccc3ccc(C(=O)NCc4ccncc4)cc3c2=O)cc1 [Example 33, 2-(4-cyanobenzyl)-1-oxo-1,2-dihydro-isoquinoline-7-carboxylic Acid (pyridin-4-ylmethyl)amide] | –
28 | – | 11 µM | CCOC(=O)Cn1ccc2ccc(C#CCc3ccccc3)cc2c1=O [Example 66x, [1-Oxo-7-(3-phenyl-prop-1-ynyl)-1H-isoquinolin-2-yl]-acetic acid ethyl ester] | –
